Assay results taken from US20070066526A1, “Method for reducing risk of and extent of injury due to stroke in hypertensive subjects” (priority 2005, published 2007).

Assays:
[1] = test system: hypertensive Dahl salt-sensitive rats; assay: Middle cerebral artery occlusion, infarct size by TTC staining in hypertensive Dahl rats; type: in vivo, rat
εPKC = biological target: T1, εPKC (Rattus norvegicus, UniProt P09216); assay: Western blot of εPKC translocation in brain of Dahl hypertensive rats; conditions: sustained subcutaneous pump delivery, same blot reprobed
T1 sequence (P09216 1-737): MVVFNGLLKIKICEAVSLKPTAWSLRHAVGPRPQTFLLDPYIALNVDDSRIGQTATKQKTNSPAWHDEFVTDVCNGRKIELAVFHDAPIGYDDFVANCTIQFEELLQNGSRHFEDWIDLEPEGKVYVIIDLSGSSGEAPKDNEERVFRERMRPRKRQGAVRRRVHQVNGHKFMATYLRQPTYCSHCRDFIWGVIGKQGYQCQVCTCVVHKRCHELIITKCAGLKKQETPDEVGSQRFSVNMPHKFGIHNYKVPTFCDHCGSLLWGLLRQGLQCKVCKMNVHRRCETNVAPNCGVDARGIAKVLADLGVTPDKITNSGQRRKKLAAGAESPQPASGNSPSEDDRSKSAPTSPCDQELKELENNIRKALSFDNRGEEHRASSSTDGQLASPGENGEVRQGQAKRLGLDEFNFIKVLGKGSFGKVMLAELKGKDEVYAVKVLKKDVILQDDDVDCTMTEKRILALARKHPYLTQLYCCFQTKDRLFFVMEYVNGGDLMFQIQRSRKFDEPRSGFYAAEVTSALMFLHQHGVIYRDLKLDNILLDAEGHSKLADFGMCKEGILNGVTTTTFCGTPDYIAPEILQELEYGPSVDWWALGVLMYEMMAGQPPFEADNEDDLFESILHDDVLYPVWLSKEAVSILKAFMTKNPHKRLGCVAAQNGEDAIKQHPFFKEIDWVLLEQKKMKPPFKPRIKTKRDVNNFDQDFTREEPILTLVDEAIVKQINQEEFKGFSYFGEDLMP

Dahl salt-sensitive rats = assay: Laser Doppler flowmetry of cerebral blood flow in hypertensive Dahl rats; conditions: 11 weeks old, intraperitoneal injection 0.2 mg/kg, 25 min post-treatment vs baseline, mean±SEM
Procedure: Six week old Dahl salt-sensitive rats were placed on an 8% high-salt diet to induce hypertension. Cerebral brain flow (CBF) was measured at 11 weeks, 4 weeks following high-salt diet onset. A burr hole was drilled 1 mm posterior and 6 mm lateral to bregma, corresponding to the ischemic territory. A laser Doppler transducer probe (Laserflo) was affixed above the cortex using a stereotaxic frame (Harvard Apparatus, MA), and a baseline CBF was established over a period of 20-30 minutes (1 minute intervals), Tat control peptide (n=5) or δV1-1-Tat peptide (n=15) was injected by intraperitoneal injection (0.2 mg/kg in 1 mL) and cerebral brain flow was monitored for an additional 20-30 minutes. Cerebral brain flow was also measured in the sham control animals (n=4).
Analysis of changes in cerebral brain flow was performed by comparing the baseline flow-rate at 20 minutes, to the flow-rate at 25 minutes post-treatment in all animals. Results were expressed as both a scattergram of percent flow changes in individual animals, and the mean±SEM flow in each group. Statistical analysis between Tat and δV1-1-Tat treatment groups was performed using an unpaired t-test.

δPKC [2] = biological target: δPKC (Rattus norvegicus, UniProt P09215); assay: Western blot of δPKC translocation (soluble to membrane fraction) in brain of Dahl hypertensive rats; conditions: sustained subcutaneous pump delivery 4-6 weeks, n=3
Sequence of δPKC (Rattus norvegicus, UniProt P09215) (P09215 whole entry): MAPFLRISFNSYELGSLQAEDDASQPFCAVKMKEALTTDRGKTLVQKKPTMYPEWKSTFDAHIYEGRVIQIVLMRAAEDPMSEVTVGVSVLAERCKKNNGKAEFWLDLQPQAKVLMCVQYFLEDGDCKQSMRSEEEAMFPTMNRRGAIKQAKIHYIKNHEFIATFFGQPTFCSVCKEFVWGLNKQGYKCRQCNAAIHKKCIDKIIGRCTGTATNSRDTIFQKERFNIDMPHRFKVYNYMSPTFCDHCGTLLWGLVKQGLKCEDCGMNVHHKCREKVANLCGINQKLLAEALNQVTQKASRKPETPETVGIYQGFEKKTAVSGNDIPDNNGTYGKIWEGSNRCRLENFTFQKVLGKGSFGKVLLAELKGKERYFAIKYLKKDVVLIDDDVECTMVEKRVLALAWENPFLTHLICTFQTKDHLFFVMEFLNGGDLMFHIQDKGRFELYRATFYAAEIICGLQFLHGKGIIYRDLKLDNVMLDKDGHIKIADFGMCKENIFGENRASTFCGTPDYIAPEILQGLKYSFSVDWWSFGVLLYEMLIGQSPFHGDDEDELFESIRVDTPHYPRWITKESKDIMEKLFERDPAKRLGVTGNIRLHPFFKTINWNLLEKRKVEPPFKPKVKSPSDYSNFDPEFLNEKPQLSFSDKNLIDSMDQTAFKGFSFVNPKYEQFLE
Procedure: Dahl rats were implanted with pumps for subcutaneous delivering δV1-1-Tat or Tat control peptide for 4-6 weeks. δPKC activity in brain samples was assessed by determining the translocation of the enzyme from the soluble, cytosolic fraction, to the membrane-bound fraction, a standard marker for PKC activation (Kraft, A. S. et al., Nature, 301:621-3 (1983)).
The density of the bands was measured to assess PKC translocation, as a measure of δPKC activation.
Brains from Dahl hypertensive rats that received δV1-1-Tat or Tat peptide delivery for 4 weeks, starting at 11 weeks of age, were quickly isolated and frozen. Tissue fractionation was performed to collect soluble (cytosolic) and particulate (membrane) fractions, as previously described (Johnson, J. A. et al., Life Sci., 57:1027-38(1995)). 5 μg of protein from each fraction was used forwestern blot analysis using a rabbit anti-phospho-serine 643 δPKC antibody (Santa Cruz Biotechnology; 1:500) followed with an anti-rabbit secondary antibody (Amersham). Density of δPKC bands was measured to assess translocation of PKC from the cytosol to membrane fractions, a measure of activation (Kraft, A. S. et al., Nature, 301:621-3 (1983)). Blots were then reprobed with a rabbit anti-δPKC antibody (Santa Cruz Biotechnology; 1:500), to assess translocation of the δPKC isozyme. Statistical analysis was performed using students t-test.

δPKC [3] = conditions: normotensive animals, sustained delivery; cited from earlier work

| Sequence | infarct size (relative stroke area) ([1]; rat, in vivo, sc) [%] | εPKC activation, percent translocation (εPKC) [% translocation] | change in cerebral blood flow from baseline (Dahl salt-sensitive rats) [%] | δPKC activation, percent translocation (δPKC [2]) [% translocation] | reduction of infarct size compared with Tat controls ([1]; 90 min MCA occlusion, 24 h reperfusion, chronic subcutaneous pump delivery, animals without hemorrhage) [%] | infarct size (relative stroke area) ([1]; 90 min MCA occlusion, 24 h reperfusion, chronic subcutaneous pump delivery, animals without hemorrhage, n=6-7 per group) [%] | δPKC activity in the brain (δPKC [3]) |
| --- | --- | --- | --- | --- | --- | --- | --- |
| YGRKKRRQRRR [Tat] | 39±3 | 46±5 | −5±9 | 49±1 |  |  |  |
| SFNSYELGSL (listed as Rattus norvegicus) [δV1-1] |  |  | 12 |  | 25 | 30±4 | inhibits δPKC activity |
